Tested on: BALB/cJ mice
Experiment: Delivery of hEPO mRNA by intramuscular administration of LNPs; serum hEPO by ELISA
Type: in vivo, Mouse
Experimental: In summary, lipid screening studies were conducted with female BALB/cJ mice 6-8 weeks of age. Mice were dosed with 0.1 μg in 30 μL of LNPs by a single intramuscular (IM) injection into the gastrocnemius leg muscle. Blood samples were taken 6 and 24 hours post injection and hEPO levels were measured in the blood serum of the mice using an ELISA assay according to the manufacture's protocol.
Treatment Regimen: On Day 1, animals from Groups 1-33 were dosed via intramuscular injection while under light isoflurane anesthesia according to the study design table above. Animals in Groups 1-33 were injected with EPO mRNA LNPs in the right leg only. Groups 1 and 17 animals received MC3 control.
Interim Sample Collections: Interim whole blood (^~50 μL) was collected by tail snip or saphenous vein at 6 and 24 hours post dose administration (±5%). Blood samples were collected into serum separator tubes, allowed to clot at room temperature for at least 10 minutes, centrifuged at ambient temperature at minimum 1000 g for 10 minutes and the serum was extracted. All serum samples were stored at nominally −70° C. until analysis hEPO by the Testing Facility. The results of the EPO analysis were included in the Data Submission.
Terminal Blood Collections: Whole blood was collected via cardiac puncture into serum separator tube, allowed to clot at room temperature for at least 10 minutes, centrifuged at ambient temperature at minimum 1000 g for 10 minutes and the serum was extracted. Serum samples were stored at nominally −70° C. until analyzed for hEPO by the Test Facility.
ELISA Assay: Human erythropoietin (hEPO) levels in sera samples were determined by ELISA kit (R&D systems, Cat #DEP-00) according to the manufactory instruction and the results were included in the Data Submission. The “shaker” protocol was used. The serum samples were diluted between 1:40 and 1:100.

[1] = Table 4, further lipids, mouse serum 6 hours post IM injection of hEPO mRNA LNP as in example 3
[2] = Table 5, comparative ether compounds, mouse serum 6 hours post IM injection of hEPO mRNA LNP as in example 3

CCCCC/C=C\C/C=C\CCCCCCCCC(CCCCCCCC/C=C\C/C=C\CCCCC)OC(=O)CCCN(C)C [MC3, reference compound]
hEPO 6 Hr (ng/ml) Mean (Table 2, isosorbide-derived lipids, mouse serum 6 hours post single IM injection of 0.1 μg hEPO mRNA LNP): 7.1 ng/mL
hEPO 6 Hr (ng/mL) Mean (Table 3, isomannide-derived lipids, mouse serum 6 hours post single IM injection of 0.1 μg hEPO mRNA LNP): 5.6 ng/mL

CCCCCCCCCCC(O)CN(CCCCC(=O)N[C@H]1CO[C@H]2[C@@H]1OC[C@@H]2NC(=O)CCCCN(CC(O)CCCCCCCCCC)CC(O)CCCCCCCCCC)CC(O)CCCCCCCCCC (stereo partly shown) [Compound 71]
hEPO 6 Hr (ng/ml) Mean [1]: 72.0 ng/mL

CCCCCCCCC(O)CN(CCCO[C@@H]1CO[C@H]2[C@@H]1OC[C@H]2OCCCN(CC(O)CCCCCCCC)CC(O)CCCCCCCC)CC(O)CCCCCCCC (stereo partly shown) [reference compound]
hEPO 6 Hr (ng/ml) Mean [2]: 11.3 ng/mL

CCCCCCCCCCC(O)CN(CCCC(=O)S[C@H]1CO[C@H]2[C@@H]1OC[C@@H]2SC(=O)CCCN(CC(O)CCCCCCCCCC)CC(O)CCCCCCCCCC)CC(O)CCCCCCCCCC (stereo partly shown) [Compound 44]
hEPO 6 Hr (ng/ml) Mean [1]: 2.0 ng/mL

CCCCCCCCC(O)CN(CCCCC(=O)N[C@H]1CO[C@H]2[C@@H]1OC[C@@H]2NC(=O)CCCCN(CC(O)CCCCCCCC)CC(O)CCCCCCCC)CC(O)CCCCCCCC (stereo partly shown) [Compound 70]
hEPO 6 Hr (ng/ml) Mean [1]: 47.6 ng/mL

CCCCCCCCCCC(O)CN(CCCO[C@@H]1CO[C@H]2[C@@H]1OC[C@H]2OCCCN(CC(O)CCCCCCCCCC)CC(O)CCCCCCCCCC)CC(O)CCCCCCCCCC (stereo partly shown) [reference compound]
hEPO 6 Hr (ng/ml) Mean [2]: 33.8 ng/mL

CCCCCC/C=C\COC(=O)CCCCCCCN(CCCCCCCC(=O)OC/C=C\CCCCCC)CCCCSC(=O)N[C@@H]1CO[C@H]2[C@@H]1OC[C@H]2NC(=O)SCCCCN(CCCCCCCC(=O)OC/C=C\CCCCCC)CCCCCCCC(=O)OC/C=C\CCCCCC [Compound 85]
hEPO 6 Hr (ng/ml) Mean [1]: 23.8 ng/mL

CCCCCCCCCCC(O)CN(CCCS[C@H]1CO[C@H]2[C@@H]1OC[C@@H]2SCCCN(CC(O)CCCCCCCCCC)CC(O)CCCCCCCCCC)CC(O)CCCCCCCCCC (stereo partly shown) [Compound 81]
hEPO 6 Hr (ng/ml) Mean [1]: 2.3 ng/mL

CCCCCCCCCCC(O)CCN(CCCNC(=O)O[C@@H]1CO[C@H]2[C@@H]1OC[C@H]2OC(=O)NCCCN(CC(O)CCCCCCCCCC)CC(O)CCCCCCCCCC)C(O)CCCCCCCCCC (stereo partly shown) [Compound 48]
hEPO 6 Hr (ng/ml) Mean [1]: 81.3 ng/mL

CCCCCCCCCCCOC(=O)CCCC(O)CN(CCCCC(=O)O[C@@H]1CO[C@H]2[C@@H]1OC[C@@H]2OC(=O)CCCN(CC(O)CCCCCC(=O)OC(CCCCCCCC)CCCCCCCC)CC(O)CCCC(=O)OCCCCCCCCCCC)CC(O)CCCCCC(=O)OC(CCCCCCCC)CCCCCCCC (stereo partly shown) [Compound 66]
hEPO 6 Hr (ng/ml) Mean [1]: 23.2 ng/mL

CCCCCC/C=C\COC(=O)CCCCCC(O)CN(CCCC(=O)N[C@H]1CO[C@H]2[C@@H]1OC[C@@H]2NC(=O)CCCN(CC(O)CCCCCC(=O)OC/C=C\CCCCCC)CC(O)CCCCCC(=O)OC/C=C\CCCCCC)CC(O)CCCCCC(=O)OC/C=C\CCCCCC (stereo partly shown) [Compound 74]
hEPO 6 Hr (ng/ml) Mean [1]: 2.1 ng/mL

CCCCCCCCCCCCC(O)CN(CCCO[C@@H]1CO[C@H]2[C@@H]1OC[C@H]2OCCCN(CC(O)CCCCCCCCCCCC)CC(O)CCCCCCCCCCCC)CC(O)CCCCCCCCCCCC (stereo partly shown) [reference compound]
hEPO 6 Hr (ng/ml) Mean [2]: 13.9 ng/mL

CCCCCCCCCCCCC(O)CN(CCCCC(=O)SC1CO[C@@H]2C(SC(=O)CCCCN(CC(O)CCCCCCCCCCCC)CC(O)CCCCCCCCCCCC)CO[C@H]12)CC(O)CCCCCCCCCCCC (stereo partly shown) [Compound 83]
hEPO 6 Hr (ng/ml) Mean [1]: 8.0 ng/mL

CCCCCCCCCCCOC(=O)CCCC(O)CN(CCCC(=O)O[C@@H]1CO[C@H]2[C@@H]1OC[C@H]2OC(=O)CCCN(CC(O)CCCCCOC(=O)C(CCCCCCCC)CCCCCCCC)CC(O)CCCC(=O)OCCCCCCCCCCC)CC(O)CCCCCOC(=O)C(CCCCCCCC)CCCCCCCC (stereo partly shown) [Compound 12]
hEPO 6 Hr (ng/ml) Mean [1]: 34.4 ng/mL

CCCCCCCCCCC(O)CN(CCCCS[C@H]1CO[C@H]2[C@@H]1OC[C@@H]2SCCCCN(CC(O)CCCCCCCCCC)CC(O)CCCCCCCCCC)CC(O)CCCCCCCCCC (stereo partly shown) [Compound 46]
hEPO 6 Hr (ng/ml) Mean [1]: 2.1 ng/mL

CCCCCCCCCCC(O)CN(CCCCCC(=O)O[C@@H]1CO[C@H]2[C@@H]1OC[C@@H]2OC(=O)CCCCN(CC(O)CCCCCCCCCC)CC(O)CCCCCCCCCC)CC(O)CCCCCCCCCC (stereo partly shown) [Compound 67]
hEPO 6 Hr (ng/ml) Mean [1]: 34.4 ng/mL

CCCCCCCCCCC(O)CN(CCCCC(=O)S[C@H]1CO[C@H]2[C@@H]1OC[C@@H]2SC(=O)CCCCN(CC(O)CCCCCCCCCC)CC(O)CCCCCCCCCC)CC(O)CCCCCCCCCC (stereo partly shown) [Compound 80]
hEPO 6 Hr (ng/ml) Mean [1]: 0.9 ng/mL

CCCCCCCCCCCOC(=O)CCCC(O)CN(CCCC(=O)N[C@H]1CO[C@H]2[C@@H]1OC[C@@H]2NC(=O)CCCN(CC(O)CCCCCC(=O)OC(CCCCCCCC)CCCCCCCC)CC(O)CCCC(=O)OCCCCCCCCCCC)CC(O)CCCCCC(=O)OC(CCCCCCCC)CCCCCCCC (stereo partly shown) [Compound 73]
hEPO 6 Hr (ng/ml) Mean [1]: 23.4 ng/mL

CCCCCCCCC(O)CN(CCCOC(=O)O[C@@H]1CO[C@H]2[C@@H]1OC[C@H]2OC(=O)OCCCN(CC(O)CCCCCCCC)CC(O)CCCCCCCC)CC(O)CCCCCCCC (stereo partly shown) [Compound 79]
hEPO 6 Hr (ng/ml) Mean [1]: 21.2 ng/mL

CCCCCCCCCCCCCCC(O)CN(CCCC(=O)O[C@@H]1CO[C@H]2[C@@H]1OC[C@@H]2OC(=O)CCCCN(CC(O)CCCCCCCCCC)CC(O)CCCCCCCCCC)CC(O)CCCCCCCCCCCCCC (stereo partly shown) [Compound 63]
hEPO 6 Hr (ng/ml) Mean [1]: 60.5 ng/mL

CCCCCCCCCCCOC(=O)CCCC(O)CN(CCCC(=O)O[C@H]1CO[C@H]2[C@@H]1OC[C@H]2OC(=O)CCCN(CC(O)CCCCCOC(=O)C(CCCCCCCC)CCCCCCCC)CC(O)CCCC(=O)OCCCCCCCCCCC)CC(O)CCCCCOC(=O)C(CCCCCCCC)CCCCCCCC (stereo partly shown) [Compound 64]
hEPO 6 Hr (ng/ml) Mean [1]: 36.2 ng/mL

CCCCCCCCCCC(O)CN(CCCCC(=O)O[C@@H]1CO[C@H]2[C@@H]1OC[C@H]2OC(=O)CCCN(CC(O)CCCCCCCCCC)CC(O)CCCCCCCCCC)CC(O)CCCCCCCCCC (stereo partly shown) [Compound 56]
hEPO 6 Hr (ng/ml) Mean [1]: 51.9 ng/mL

CCCCCC/C=C\COC(=O)CCCCCCCN(CCCCCCCC(=O)OC/C=C\CCCCCC)CCCC(=O)N[C@H]1CO[C@H]2[C@@H]1OC[C@@H]2NC(=O)CCCN(CCCCCCCC(=O)OC/C=C\CCCCCC)CCCCCCCC(=O)OC/C=C\CCCCCC [Compound 75]
hEPO 6 Hr (ng/ml) Mean [1]: 2.1 ng/mL

CCCCCCCCCCCCC(O)CN(CCCC(=O)S[C@H]1CO[C@H]2[C@@H]1OC[C@@H]2SC(=O)CCCN(CC(O)CCCCCCCCCCCC)CC(O)CCCCCCCCCCCC)CC(O)CCCCCCCCCCCC (stereo partly shown) [Compound 82]
hEPO 6 Hr (ng/ml) Mean [1]: 3.1 ng/mL

CCCCCCCCCCCOC(=O)CCCCCN(CCCCCCCC(=O)OC(CCCCCCCC)CCCCCCCC)CCCCSC(=O)N[C@H]1CO[C@H]2[C@@H]1OC[C@@H]2NC(=O)SCCCCN(CCCCCCCC(=O)OC(CCCCCCCC)CCCCCCCC)CCCCCC(=O)OCCCCCCCCCCC (stereo in doubt) [Compound 84]
hEPO 6 Hr (ng/ml) Mean [1]: 22.1 ng/mL

CCCCCCCCCCCOC(=O)CCCCCN(CCCCCCCC(=O)OC(CCCCCCCC)CCCCCCCC)CCCC(=O)N[C@H]1CO[C@H]2[C@@H]1OC[C@@H]2NC(=O)CCCN(CCCCCCCC(=O)OC(CCCCCCCC)CCCCCCCC)CCCCCC(=O)OCCCCCCCCCCC [Compound 72]
hEPO 6 Hr (ng/ml) Mean [1]: 6.2 ng/mL

CCCCCCCCCCC(O)CN(CCCSS[C@H]1CO[C@H]2[C@@H]1OC[C@@H]2SSCCCN(CC(O)CCCCCCCCCC)CC(O)CCCCCCCCCC)CC(O)CCCCCCCCCC (stereo partly shown) [Compound 45]
hEPO 6 Hr (ng/ml) Mean [1]: 2.2 ng/mL

Reference: US20260224486A1, “DIANHYDROHEXITOL BASED IONIZABLE LIPIDS FOR NUCLEIC ACID DELIVERY” (SANOFI PASTEUR INC., priority 2023, published 2026)
